31 compounds from patent publication US9434711B2 (Janssen Pharmaceutica, NV, priority 2007, dated 2016) can be followed below.

For this assay, the target named is canine TRPM8 (Canis lupus familiaris, UniProt Q1A7N1). In words: In Vitro Canine TRPM8 Functional Assay (Ca2+ fluorescence, icilin activation). Format: cell-based. The following applies: for inhibition at 0.2 µM: read-out: % Inh @ 0.2; for IC50: read-out: IC50; for inhibition at 0.5 µM: read-out: % Inh @ 0.5. In short, it runs like this:
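Eight-point dose-response curves in quadruplicate gave EC50 or IC50 values from a Ca2+-sensitive dye assay in HEK293 cells stably carrying canine TRPM8. Icilin, dosed near its 80% maximal level, followed a 5 min compound exposure.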

Setting [1] is: 0.2 μM compound, HEK293 cells stably expressing canine TRPM8, icilin activation.
Setting [2] is: HEK293 cells stably expressing canine TRPM8, icilin activation, average of two or more determinations.
Setting [3] is: HEK293 cells stably expressing canine TRPM8, icilin activation, eight-point dose-response.
The mark [4] stands for this setting: compound at 0.2 μM, canine TRPM8, icilin activation.
Setting [5] is: compound at 0.5 μM, canine TRPM8, icilin activation.

Where two headings read alike, the source gives them in different places.

For orientation: IC50 means the midpoint of a concentration-inhibition curve.

Chain of canine TRPM8 (Q1A7N1 1-1104): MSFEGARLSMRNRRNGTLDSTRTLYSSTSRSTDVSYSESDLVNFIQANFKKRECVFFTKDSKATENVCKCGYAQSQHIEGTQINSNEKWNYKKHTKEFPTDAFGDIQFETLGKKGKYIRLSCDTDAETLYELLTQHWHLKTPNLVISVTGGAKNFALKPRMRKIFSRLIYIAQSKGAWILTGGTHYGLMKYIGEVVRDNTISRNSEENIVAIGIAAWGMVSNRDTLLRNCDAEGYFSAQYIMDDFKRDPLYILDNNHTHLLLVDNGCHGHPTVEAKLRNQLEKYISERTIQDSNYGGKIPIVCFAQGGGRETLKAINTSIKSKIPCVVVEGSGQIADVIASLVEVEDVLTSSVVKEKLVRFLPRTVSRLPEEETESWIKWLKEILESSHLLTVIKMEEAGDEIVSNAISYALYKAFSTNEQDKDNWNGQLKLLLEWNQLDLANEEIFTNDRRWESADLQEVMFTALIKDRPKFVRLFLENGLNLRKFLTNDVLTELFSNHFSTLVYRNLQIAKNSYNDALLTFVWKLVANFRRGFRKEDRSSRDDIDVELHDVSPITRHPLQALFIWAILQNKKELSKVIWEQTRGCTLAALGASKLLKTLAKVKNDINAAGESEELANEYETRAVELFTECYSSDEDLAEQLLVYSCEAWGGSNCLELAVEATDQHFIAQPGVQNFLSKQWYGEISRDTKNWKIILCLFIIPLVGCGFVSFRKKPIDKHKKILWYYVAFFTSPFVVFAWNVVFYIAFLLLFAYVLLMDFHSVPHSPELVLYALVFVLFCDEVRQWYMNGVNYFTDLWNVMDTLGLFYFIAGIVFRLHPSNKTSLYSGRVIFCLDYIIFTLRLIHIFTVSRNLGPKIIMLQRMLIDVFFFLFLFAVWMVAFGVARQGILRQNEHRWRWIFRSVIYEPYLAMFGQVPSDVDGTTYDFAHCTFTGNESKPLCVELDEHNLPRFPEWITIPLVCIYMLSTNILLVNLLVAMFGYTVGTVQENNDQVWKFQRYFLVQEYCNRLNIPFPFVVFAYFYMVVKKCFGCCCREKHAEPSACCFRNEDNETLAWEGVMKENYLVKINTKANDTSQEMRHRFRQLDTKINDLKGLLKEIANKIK

`Cc1c(N(Cc2ccc(OC(F)(F)F)cc2)S(=O)(=O)CCC(=O)O)sc2ccccc12` [Compound 795, N-(3-Methyl-benzo[b]thiophen-2-yl)-N-(4-trifluoromethoxy-benzyl)-2-carboxy-ethanesulfonamide]: the inhibition at 0.2 µM under setting [1] turned out to be 100%. For the same compound, the IC50 under setting [2] turned out to be 24.6 nM.

`O=S(=O)(c1ccsc1)N(Cc1ccc(F)c(C(F)(F)F)c1)c1cc2ccccc2s1` [Compound 78, N-(Benzo[b]thiophen-2-yl)-N-(4-fluoro-3-trifluoromethyl-benzyl)-thiophene-3-sulfonamide]: the IC50 under setting [3] is 22.5 nM. Under setting [4], the inhibition at 0.2 µM amounted to 102%.

In the case of `Cc1c(N(CC2CCCN2C(=O)OC(C)(C)C)S(=O)(=O)c2ccccc2)sc2ccccc12` (stereo not shown) [Compound 103, N-(3-Methyl-benzo[b]thiophen-2-yl)-N-{[1-(carbo-tert-butoxy)pyrrolidin-2-yl]-methyl}-benzenesulfonamide], the IC50 under setting [3] was determined as 90.8 nM. In addition, the inhibition at 0.2 µM under setting [4] is 80%.

For the compound `CCCCN(c1sc2ccccc2c1C(=O)NC)S(=O)(=O)c1ccc(C(=O)OC)cc1` [Compound 466, N-(Butyl)-N-(3-methyl-carbamoyl-benzo[b]thiophen-2-yl)-4-carbomethoxy-benzenesulfonamide], the “% Inh @ 0.2 (μM)” value under setting [4] turned out to be 66%.

Regarding `O=S(=O)(c1ccccc1)N(CCN1CCOCC1)c1sc2ccccc2c1Cl` [Compound 92, N-(3-Chloro-benzo[b]thiophen-2-yl)-N-(2-morpholin-4-yl-ethyl)-benzenesulfonamide], under setting [3], the IC50 came to 68.2 nM. The inhibition at 0.2 µM under setting [4] came out at 79%.

For the compound `Cc1nccc(-c2cccc(S(=O)(=O)N(CCCC(F)(F)F)c3sc4ccccc4c3C)c2)n1` [Compound 354, N-(3-Methyl-benzo[b]thiophen-2-yl)-N-(4,4,4-trifluoro-butyl)-3-(2-methyl-pyrimidin-4-yl)-benzenesulfonamide], the IC50 under setting [3] stood at 106 nM. Under setting [4], the inhibition at 0.2 µM was 87%.

As for `NCCN(c1sc2ccccc2c1Cl)S(=O)(=O)c1ccccc1` [Compound 270, N-(2-Amino-ethyl)-N-(3-chloro-benzo[b]thiophen-2-yl)-benzenesulfonamide], the IC50 under setting [3] came out at 338 nM. Also, the inhibition at 0.5 µM under setting [5] was 75%.

With `O=c1[nH]c(-c2ccc(S(=O)(=O)N(Cc3ccc(F)c(C(F)(F)F)c3)c3sc4ccccc4c3Br)cc2)no1` [Compound 511, N-(3-Bromo-benzo[b]thiophen-2-yl)-N-(4-fluoro-3-trifluoromethyl-benzyl)-4-(5-oxo-4,5-dihydro-[1,2,4]oxadiazol-3-yl)-benzenesulfonamide], the IC50 under setting [3] came out at 3 nM. Under setting [4], the inhibition at 0.2 µM stood at 101%.

Consider `O=C1CCCN1CCN(c1sc2ccccc2c1Br)S(=O)(=O)c1ccccc1` [Compound 236, N-(3-Bromo-benzo[b]thiophen-2-yl)-N-[2-(2-oxo-pyrrolidin-1-yl)-ethyl]-benzenesulfonamide], for which, under setting [5], the inhibition at 0.5 µM is 68%.

As to `O=S1(=O)C(N(Cc2ccc(F)c(C(F)(F)F)c2)S(=O)(=O)c2ccccc2)=C(Br)c2ccccc21` [Compound 431, N-(3-Bromo-1,1-dioxo-benzo[b]thiophen-2-yl)-N-(4-fluoro-3-trifluoromethyl-benzyl)-benzenesulfonamide], the IC50 under setting [3] turned out to be 20 nM. Also, the inhibition at 0.2 µM under setting [4] turned out to be 88%.

Turning to `Cc1c(N(Cc2ccc(F)c(C(F)(F)F)c2)S(=O)(=O)CCCCn2ccnc2)sc2ccccc12` [Compound 779, N-(4-Fluoro-3-trifluoromethyl-benzyl)-N-(3-methyl-benzo[b]thiophen-2-yl)-4-(imidazol-1-yl)-butane-1-sulfonamide], under setting [3], the IC50 worked out at 48.7 nM. Also, under setting [4], the inhibition at 0.2 µM was 79%.

For the compound `CC(C)(C)OCCN(c1sc2ccccc2c1Br)S(=O)(=O)c1ccc(C(=O)O)cc1` [Compound 275, N-(3-Bromo-benzo[b]thiophen-2-yl)-N-(2-tert-butoxy-ethyl)-4-carboxy-benzenesulfonamide], the IC50 under setting [3] came out at 3 nM. Moreover, the inhibition at 0.2 µM under setting [4] worked out at 97%.

Take `CS(=O)(=O)N(Cc1ccc(F)c(C(F)(F)F)c1)c1cc2ccccc2s1` [Compound 45, N-(Benzo[b]thiophen-2-yl)-N-(4-fluoro-3-trifluoromethyl-benzyl)-methanesulfonamide]: the IC50 under setting [3] was determined as 52 nM. Moreover, the inhibition at 0.2 µM under setting [4] is 97%.

For `COCc1c(N(CCCF)S(=O)(=O)c2ccccc2)sc2ccccc12` [Compound 832, N-(3-Fluoro-propyl)-N-(3-methoxymethyl-benzo[b]thiophen-2-yl)-benzenesulfonamide], the inhibition at 0.2 µM under setting [1] came to 76%. Besides, under setting [2], the IC50 is 88 nM.

In the case of `Cc1ccccc1CN(c1cc2ccccc2s1)S(=O)(=O)c1ccccc1` [Compound 62], under setting [3], the IC50 amounted to 58.1 nM. In addition, the “% Inh @ 0.5 (μM)” value under setting [5] is listed as 98%.

As to `CC(C)c1c(N(CCC2CC2)S(=O)(=O)c2ccccc2)sc2ccccc12` [Compound 548, N-(2-Cyclopropyl-ethyl)-N-(3-isopropyl-benzo[b]thiophen-2-yl)-benzenesulfonamide], under setting [3], the IC50 worked out at 28.9 nM. For the same compound, the inhibition at 0.2 µM under setting [4] turned out to be 102%.

As for `O=S(=O)(c1ccccc1)N(Cc1ccccc1OC(F)(F)F)c1cc2ccccc2s1` [Compound 56, N-(Benzo[b]thiophen-2-yl)-N-(2-trifluoromethoxy-benzyl)-benzenesulfonamide], the 50% inhibitory concentration (IC50) under setting [3] amounted to 103 nM. Moreover, under setting [5], the inhibition at 0.5 µM was 99%.

Turning to `Cc1c(N(CCC2CC2)S(=O)(=O)c2nc3ccccc3[nH]2)sc2ccccc12` [Compound 726, N-(Cyclopropyl-ethyl)-N-(3-methyl-benzo[b]thiophen-2-yl)-1H-benzimidazole-2-sulfonamide], the IC50 under setting [3] amounted to 90.3 nM. Under setting [4], the inhibition at 0.2 µM stood at 69%.

Consider `C=CCN(c1sc2ccccc2c1Cl)S(=O)(=O)c1ccccc1` [Compound 84, N-(Allyl)-N-(3-chloro-benzo[b]thiophen-2-yl)-benzenesulfonamide], for which the IC50 under setting [3] came out at 35 nM. In addition, under setting [5], the inhibition at 0.5 µM came to 100%.

In the case of `COC(=O)c1ccc(CN(c2cc3ccccc3s2)S(=O)(=O)c2cccnc2)cc1` [Compound 380, N-(Benzo[b]thiophen-2-yl)-N-(4-carbomethoxy-benzyl)-pyridin-3-ylsulfonamide], the inhibition at 0.2 µM under setting [4] was 24%.

Turning to `O=Cc1c(N(Cc2ccc(F)c(C(F)(F)F)c2)S(=O)(=O)c2ccccc2)sc2ccccc12` [Compound 207, N-(4-Fluoro-3-trifluoromethyl-benzyl)-N-(3-formyl-benzo[b]thiophen-2-yl)-benzenesulfonamide], the IC50 under setting [3] amounted to 16 nM. For the same compound, the inhibition at 0.2 µM under setting [4] was 98%.

Take `Cc1c(N(Cc2ccc(SC(F)(F)F)cc2)S(=O)(=O)c2ccc(C(=O)O)cc2)sc2ccccc12` [Compound 526, N-(3-Methyl-benzo[b]thiophen-2-yl)-N-(4-trifluoromethylsulfanyl-benzyl)-4-carboxy-benzenesulfonamide]: the IC50 under setting [3] is 1 nM. Besides, the inhibition at 0.2 µM under setting [4] worked out at 102%.

Take `Cc1c(N(CCC(F)(F)F)S(=O)(=O)c2ccccc2)sc2ccccc12` [Compound 615, N-(3-Methyl-benzo[b]thiophen-2-yl)-N-(3,3,3-trifluoro-propyl)-benzenesulfonamide]: under setting [3], the IC50 stood at 7.3 nM. Further, the inhibition at 0.2 µM under setting [4] worked out at 101%.

For the compound “N-(Benzo[b]thiophen-2-yl)-N-(3,3,3-trifluoro-propyl)-4-(5-oxo-4,5-dihydro-[1,2,4]oxadiazol-3-yl)-benzenesulfonamide [Compound 597]”, the “% Inh @ 0.2 (μM)” value under setting [4] amounted to 25%.

As to `CS(=O)(=O)Nc1c(Cl)cc(S(=O)(=O)N(CCCCC(F)(F)F)c2sc3ccccc3c2Cl)cc1Cl` [Compound 682, 3,5-Dichloro-N-(3-chloro-benzo[b]thiophen-2-yl)-4-methanesulfonylamino-N-(5,5,5-trifluoro-pentyl)-benzenesulfonamide], the IC50 under setting [3] is 31.7 nM. Further, the inhibition at 0.2 µM under setting [4] amounted to 101%.

`O=S(=O)(c1ccc(Br)cc1)N(CCCCC(F)(F)F)c1cc2ccccc2s1` [Compound 655, N-(Benzo[b]thiophen-2-yl)-4-bromo-N-(5,5,5-trifluoro-pentyl)-benzenesulfonamide]: the inhibition at 0.2 µM under setting [4] was 55%.

As to `NS(=O)(=O)N(Cc1ccc(F)c(C(F)(F)F)c1)c1cc2ccccc2s1` [Compound 300, N-(Benzo[b]thiophen-2-yl)-N-(4-fluoro-3-trifluoromethyl-benzyl)-sulfamide], the inhibition at 0.2 µM under setting [4] came out at 21%.

Turning to `Cc1c(N(CCCC(F)(F)F)S(=O)(=O)c2ccc(Oc3cccnc3)cc2)sc2ccccc12` [Compound 373, N-(3-Methyl-benzo[b]thiophen-2-yl)-N-(4,4,4-trifluoro-butyl)-4-(pyridin-3-yloxy)-benzenesulfonamide], under setting [3], the IC50 was found to be 123 nM. The inhibition at 0.2 µM under setting [4] was determined as 77%.

On to `CCCCN(c1cc2ccccc2s1)S(=O)(=O)c1cccnc1` [Compound 340, N-(Benzo[b]thiophen-2-yl)-N-(butyl)-pyridin-3-yl-sulfonamide], for which, under setting [4], the inhibition at 0.2 µM worked out at 52%.

Consider `O=S(=O)(c1ccccc1)N(CC(F)F)c1sc2ccccc2c1Br` [Compound 242, N-(3-Bromo-benzo[b]thiophen-2-yl)-N-(2,2-difluoro-ethyl)-benzenesulfonamide], for which the IC50 under setting [3] is 38.2 nM. Also, the inhibition at 0.2 µM under setting [4] stood at 95%.

For “N-(3-Methyl-benzo[b]thiophen-2-yl)-N-(5,5,5-trifluoro-pentyl)-4-(5-oxo-4,5-dihydro-[1,2,4]oxadiazol-3-yl)-pyrid-3-ylsulfonamide [Compound 809]”, the “% Inh @ 0.2 (μM)” value under setting [1] stood at 103%. In addition, under setting [2], the IC50 was found to be 6.9 nM.
